Reference: patent US20040073973A1, “Plant enzyme and use thereof” (priority 1996, published 2004)

What was measured:
Format in all cases: biochemical, Ulmus glabra
[1] = system: Developing Elm Seed Soluble PLA2; assay: Effects of reduction, EGTA and heat on PLA2 activity; conditions: for sensitivity of PLA2 activities to reducing agents: purified soluble and microsomal PLA2s; for PLA2 Activity Released [^14C] fatty acids: control 4740 dpm
Experimental: (§1) Membrane associated PLA2 activity was assayed according to Stahl et al. (1995) using sn-1-palmitoyl-sn-2-[^14C]decanoyl-sn-glycerol-3-phosphocholine as substrate. In standard assays of the solubilized microsomal activity and of the soluble activity 1-palmitoyl-2-[[…]]palmitoyl-glycerol-sn-3-phosphocholine was used as substrate and was presented as mixed micelles with the non-ionic detergent lubrol PX, in a PC/detergent molar relation of 1:10. Samples, 0.5-10 μl, were assayed for PLA2 activity by incubation at 30° C. for 5-30 min with 5 nmol of ^14C-labelled phosphatidylcholine (10,000 dpm/nmol) in a total volume of 50 μl of 50 mM Tris/HCl, pH 8.0 containing 10 mM CaCl2 and 0.06% (w/v) lubrol PX. The reaction was stopped by the addition of 400 μl of chloroform/methanol/acetic acid 50:50:1 followed by 150 μl of H2O. The samples were mixed thoroughly and centrifuged 10,000 g for 1 min. Chloroform phases containing extracted lipids were passed through mini-columns of silica gel, followed by a wash with 400 μl of chloroform. The eluates from the silica columns, containing released [^14C]palmitic acid, were collected and analysed by scintillation counting.

microsomal PLA2 = assay: Substrate specificity of microsomal PLA2
Experimental: as §1

[2] = system: soluble developing elm seed PLA2; assay: Position specificity of soluble PLA2 (partly purified fraction)
Experimental: as §1

Row | Compound | sensitivity of PLA2 activities to reducing agents [1] | Recovered ^14C activity in LPC (microsomal PLA2) | Recovered ^14C activity in PC (microsomal PLA2) | Recovered ^14C activity in fatty acid (microsomal PLA2) | other results
1 | O[C@H](CS)[C@H](O)CS (racemic) [DTT, dithiothreitol] | sensitive |  |  |  | 
2 | O=C(O)CN(CCOCCOCCN(CC(=O)O)CC(=O)O)CC(=O)O [EGTA] |  |  |  |  | PLA2 Activity Released [^14C] fatty acids ([1]; EGTA 10 mM): 170 dpm
3 | OCCS [Mercaptoethanol] | sensitive |  |  |  | PLA2 Activity Released [^14C] fatty acids ([1]; Mercaptoethanol 1% (v/v)): 170 dpm
4 | CCCCCCCCCCCCCCCC(=O)OC[C@H](COP(=O)([O-])OCC[N+](C)(C)C)OC(=O)CCCCCCCCC [sn-1-16:0-sn-2-[^14C]10:0-PC, sn-1-palmitoyl-sn-2-[^14C]decanoyl-sn-glycerol-3-phosphocholine] |  | 0.6 % of total recovery | 54 % of total recovery | 44 % of total recovery | 
5 | CCCCCCCCCCCCCCCC(=O)OC[C@H](COP(=O)([O-])OCC[N+](C)(C)C)OC(=O)CCCCCCCCCCCCCCC [sn-1-16:0-sn-2-[^14C]16:0-PC, sn-1-palmitoyl-sn-2-[^14C]palmitoyl-sn-glycerol-sn-3-phosphocholine] |  | 0.8 % of total recovery | 65 % of total recovery | 34 % of total recovery | Recovered ^14C activity in LPC [2]: 0.6 % of total recovery; Recovered ^14C activity in PC [2]: 56 % of total recovery; Recovered ^14C activity in fatty acid [2]: 44 % of total recovery
